Publication PMC6704710, “Preclinical evaluation of 3D185, a novel potent inhibitor of FGFR1/2/3 and CSF-1R, in FGFR-dependent and macrophage-dominant cancer models” (Journal of Experimental & Clinical Cancer Research : CR, 2019)

Assays:
Experiment in all cases: Eurofins kinase panel
Format in all cases: biochemical
Conditions in all cases: read-out: Inhibition rate (%)
SIK(h) = target: T1, SIK(h) (Homo sapiens, UniProt P57059)
T1 construct: purchased Eurofins (KinaseProfiler)

PDGFRα(h) = target: T2, PDGFRα(h) (Homo sapiens, UniProt P16234)
T2 construct: purchased Eurofins (KinaseProfiler)

LTK(h) = target: T3, LTK(h) (Homo sapiens, UniProt P29376)
T3 construct: purchased Eurofins (KinaseProfiler)

IGF-1R(h), activated = target: T4, IGF-1R(h), activated (Homo sapiens, UniProt P08069)
T4 construct: purchased Eurofins (KinaseProfiler)
T4 sequence (P08069 31-1367): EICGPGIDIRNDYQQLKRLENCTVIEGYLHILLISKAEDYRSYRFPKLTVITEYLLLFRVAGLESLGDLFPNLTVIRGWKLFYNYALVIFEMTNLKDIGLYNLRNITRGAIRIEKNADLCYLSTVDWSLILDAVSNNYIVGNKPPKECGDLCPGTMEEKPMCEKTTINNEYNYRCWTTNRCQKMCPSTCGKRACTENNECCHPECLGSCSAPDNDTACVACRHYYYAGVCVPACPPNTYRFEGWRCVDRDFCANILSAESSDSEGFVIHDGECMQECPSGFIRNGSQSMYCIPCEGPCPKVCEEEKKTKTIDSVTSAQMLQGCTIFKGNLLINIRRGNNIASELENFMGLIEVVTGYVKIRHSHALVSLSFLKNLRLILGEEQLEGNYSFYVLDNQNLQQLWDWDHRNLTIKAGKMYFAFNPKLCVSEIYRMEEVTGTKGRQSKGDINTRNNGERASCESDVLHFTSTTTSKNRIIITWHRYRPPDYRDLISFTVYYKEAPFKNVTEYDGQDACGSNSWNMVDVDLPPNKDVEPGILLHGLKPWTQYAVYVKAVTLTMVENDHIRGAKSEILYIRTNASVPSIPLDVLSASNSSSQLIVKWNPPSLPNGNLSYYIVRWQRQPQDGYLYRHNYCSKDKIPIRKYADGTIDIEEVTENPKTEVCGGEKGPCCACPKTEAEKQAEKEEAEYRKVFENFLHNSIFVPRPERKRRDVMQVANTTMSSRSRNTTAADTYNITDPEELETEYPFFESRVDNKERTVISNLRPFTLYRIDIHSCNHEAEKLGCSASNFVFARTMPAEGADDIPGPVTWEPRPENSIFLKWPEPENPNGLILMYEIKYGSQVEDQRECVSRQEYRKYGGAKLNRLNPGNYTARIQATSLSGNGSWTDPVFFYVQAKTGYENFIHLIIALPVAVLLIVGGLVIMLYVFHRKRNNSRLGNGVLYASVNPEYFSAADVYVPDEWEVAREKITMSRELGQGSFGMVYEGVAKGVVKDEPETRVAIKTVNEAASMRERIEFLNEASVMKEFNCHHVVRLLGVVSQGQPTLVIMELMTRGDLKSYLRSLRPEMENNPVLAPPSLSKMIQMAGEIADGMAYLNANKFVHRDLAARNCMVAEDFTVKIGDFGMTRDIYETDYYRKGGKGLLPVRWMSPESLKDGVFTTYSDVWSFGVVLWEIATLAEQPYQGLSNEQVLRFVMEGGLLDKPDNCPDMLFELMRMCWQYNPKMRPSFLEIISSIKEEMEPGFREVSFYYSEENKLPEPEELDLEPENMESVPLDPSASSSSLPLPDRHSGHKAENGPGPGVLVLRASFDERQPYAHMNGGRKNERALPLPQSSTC

mTOR(h) = target: T5, mTOR(h) (Homo sapiens, UniProt P42345)
T5 construct: purchased Eurofins (KinaseProfiler)

PKCδ(h) = target: T6, PKCδ(h) (Homo sapiens, UniProt Q05655)
T6 construct: purchased Eurofins (KinaseProfiler)

cKit(V560G)(h) = target: T7, cKit(V560G)(h) (Homo sapiens, UniProt P10721, V560G)
T7 construct: purchased Eurofins (KinaseProfiler)
T7 sequence (P10721 26-976 V560G): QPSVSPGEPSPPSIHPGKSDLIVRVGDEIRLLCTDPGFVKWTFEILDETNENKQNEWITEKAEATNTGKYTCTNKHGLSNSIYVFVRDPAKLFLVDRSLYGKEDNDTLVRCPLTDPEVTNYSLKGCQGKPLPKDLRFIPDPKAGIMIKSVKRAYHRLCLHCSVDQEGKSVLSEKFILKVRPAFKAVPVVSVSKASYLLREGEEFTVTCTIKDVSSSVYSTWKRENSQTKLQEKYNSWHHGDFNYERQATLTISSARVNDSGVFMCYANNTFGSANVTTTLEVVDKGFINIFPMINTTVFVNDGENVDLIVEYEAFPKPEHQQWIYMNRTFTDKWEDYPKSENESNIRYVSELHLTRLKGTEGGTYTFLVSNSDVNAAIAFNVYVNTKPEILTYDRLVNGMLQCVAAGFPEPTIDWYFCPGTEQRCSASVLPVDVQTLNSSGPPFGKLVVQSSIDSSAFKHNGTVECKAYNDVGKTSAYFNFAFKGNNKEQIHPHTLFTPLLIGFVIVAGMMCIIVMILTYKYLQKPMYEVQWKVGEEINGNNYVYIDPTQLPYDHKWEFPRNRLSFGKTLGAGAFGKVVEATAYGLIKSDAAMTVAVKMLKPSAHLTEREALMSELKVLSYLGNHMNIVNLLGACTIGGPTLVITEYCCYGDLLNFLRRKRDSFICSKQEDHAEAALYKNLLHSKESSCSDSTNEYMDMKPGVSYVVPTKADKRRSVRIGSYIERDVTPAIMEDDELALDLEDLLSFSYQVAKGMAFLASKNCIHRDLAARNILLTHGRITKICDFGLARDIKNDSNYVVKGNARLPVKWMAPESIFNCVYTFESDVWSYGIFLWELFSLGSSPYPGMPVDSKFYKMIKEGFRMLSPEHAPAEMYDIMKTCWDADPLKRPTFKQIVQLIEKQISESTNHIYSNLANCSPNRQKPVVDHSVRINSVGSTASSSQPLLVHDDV

DYRK1B(h) = target: T8, DYRK1B(h) (Homo sapiens, UniProt Q9Y463)
T8 construct: purchased Eurofins (KinaseProfiler)

Axl(h) = target: T9, Axl(h) (Homo sapiens, UniProt P30530)
T9 construct: purchased Eurofins (KinaseProfiler)
T9 sequence (P30530 26-894): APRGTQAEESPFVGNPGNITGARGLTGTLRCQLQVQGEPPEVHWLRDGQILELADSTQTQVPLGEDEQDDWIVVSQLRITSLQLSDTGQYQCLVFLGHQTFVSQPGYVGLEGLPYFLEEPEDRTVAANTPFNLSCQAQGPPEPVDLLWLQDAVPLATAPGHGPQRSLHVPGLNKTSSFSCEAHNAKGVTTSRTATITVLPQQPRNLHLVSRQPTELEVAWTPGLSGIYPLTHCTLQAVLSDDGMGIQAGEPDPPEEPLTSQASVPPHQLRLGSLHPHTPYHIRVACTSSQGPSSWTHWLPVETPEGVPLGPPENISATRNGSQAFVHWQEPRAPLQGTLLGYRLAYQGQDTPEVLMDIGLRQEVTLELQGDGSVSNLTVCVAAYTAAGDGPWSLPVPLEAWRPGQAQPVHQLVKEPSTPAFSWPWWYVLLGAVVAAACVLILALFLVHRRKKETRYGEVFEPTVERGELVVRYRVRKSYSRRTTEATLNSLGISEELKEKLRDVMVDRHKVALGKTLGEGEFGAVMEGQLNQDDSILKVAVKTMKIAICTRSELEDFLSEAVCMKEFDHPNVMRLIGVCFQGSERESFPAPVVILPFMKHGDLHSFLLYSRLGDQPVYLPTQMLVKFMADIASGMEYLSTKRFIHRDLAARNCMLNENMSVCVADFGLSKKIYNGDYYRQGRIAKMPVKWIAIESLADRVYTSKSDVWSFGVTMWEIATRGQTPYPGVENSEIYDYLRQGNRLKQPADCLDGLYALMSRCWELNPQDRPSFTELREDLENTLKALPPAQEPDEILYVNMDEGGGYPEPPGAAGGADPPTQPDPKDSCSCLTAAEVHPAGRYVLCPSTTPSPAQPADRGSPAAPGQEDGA

cKit(D816H)(h) = target: T10, cKit(D816H)(h) (Homo sapiens, UniProt P10721, D816H)
T10 construct: purchased Eurofins (KinaseProfiler)
T10 sequence (P10721 26-976 D816H): as the sequence (P10721 26-976 V560G) above, with G535V, D791H counted along it

FAK(h) = target: T11, FAK(h) (Homo sapiens, UniProt Q05397)
T11 construct: purchased Eurofins (KinaseProfiler)
T11 sequence (Q05397 whole entry): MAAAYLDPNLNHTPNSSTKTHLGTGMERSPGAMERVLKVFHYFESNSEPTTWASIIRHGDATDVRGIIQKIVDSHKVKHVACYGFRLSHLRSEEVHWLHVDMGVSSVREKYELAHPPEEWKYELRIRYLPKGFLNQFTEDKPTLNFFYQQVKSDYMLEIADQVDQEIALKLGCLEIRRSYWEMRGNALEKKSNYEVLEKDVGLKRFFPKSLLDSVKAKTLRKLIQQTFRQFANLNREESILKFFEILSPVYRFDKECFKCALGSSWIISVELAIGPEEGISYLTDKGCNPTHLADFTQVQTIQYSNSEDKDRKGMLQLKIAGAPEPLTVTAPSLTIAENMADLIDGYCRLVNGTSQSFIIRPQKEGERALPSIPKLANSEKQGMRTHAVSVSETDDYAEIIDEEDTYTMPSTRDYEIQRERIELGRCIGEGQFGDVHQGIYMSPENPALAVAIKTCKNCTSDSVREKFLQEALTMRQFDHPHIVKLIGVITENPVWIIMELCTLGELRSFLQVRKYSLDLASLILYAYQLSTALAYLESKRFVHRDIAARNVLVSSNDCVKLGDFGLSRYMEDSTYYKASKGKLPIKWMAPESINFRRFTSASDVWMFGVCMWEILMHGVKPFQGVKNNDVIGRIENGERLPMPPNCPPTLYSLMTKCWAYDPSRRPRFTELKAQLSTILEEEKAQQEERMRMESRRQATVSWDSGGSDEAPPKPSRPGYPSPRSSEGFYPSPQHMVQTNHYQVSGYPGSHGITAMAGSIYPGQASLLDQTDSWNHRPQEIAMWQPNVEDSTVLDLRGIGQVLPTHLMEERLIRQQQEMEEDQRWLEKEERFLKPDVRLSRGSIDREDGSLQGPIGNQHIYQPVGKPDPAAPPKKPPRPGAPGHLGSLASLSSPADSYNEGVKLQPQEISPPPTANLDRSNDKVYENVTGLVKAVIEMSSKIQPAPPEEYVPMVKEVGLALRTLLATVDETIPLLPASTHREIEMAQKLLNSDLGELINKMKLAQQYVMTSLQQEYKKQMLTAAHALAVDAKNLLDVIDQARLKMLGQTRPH

Fms(Y969C)(h) = target: T12, Fms(Y969C)(h) (Homo sapiens, UniProt P07333, Y969C)
T12 construct: purchased Eurofins (KinaseProfiler)
T12 sequence (P07333 20-972 Y969C): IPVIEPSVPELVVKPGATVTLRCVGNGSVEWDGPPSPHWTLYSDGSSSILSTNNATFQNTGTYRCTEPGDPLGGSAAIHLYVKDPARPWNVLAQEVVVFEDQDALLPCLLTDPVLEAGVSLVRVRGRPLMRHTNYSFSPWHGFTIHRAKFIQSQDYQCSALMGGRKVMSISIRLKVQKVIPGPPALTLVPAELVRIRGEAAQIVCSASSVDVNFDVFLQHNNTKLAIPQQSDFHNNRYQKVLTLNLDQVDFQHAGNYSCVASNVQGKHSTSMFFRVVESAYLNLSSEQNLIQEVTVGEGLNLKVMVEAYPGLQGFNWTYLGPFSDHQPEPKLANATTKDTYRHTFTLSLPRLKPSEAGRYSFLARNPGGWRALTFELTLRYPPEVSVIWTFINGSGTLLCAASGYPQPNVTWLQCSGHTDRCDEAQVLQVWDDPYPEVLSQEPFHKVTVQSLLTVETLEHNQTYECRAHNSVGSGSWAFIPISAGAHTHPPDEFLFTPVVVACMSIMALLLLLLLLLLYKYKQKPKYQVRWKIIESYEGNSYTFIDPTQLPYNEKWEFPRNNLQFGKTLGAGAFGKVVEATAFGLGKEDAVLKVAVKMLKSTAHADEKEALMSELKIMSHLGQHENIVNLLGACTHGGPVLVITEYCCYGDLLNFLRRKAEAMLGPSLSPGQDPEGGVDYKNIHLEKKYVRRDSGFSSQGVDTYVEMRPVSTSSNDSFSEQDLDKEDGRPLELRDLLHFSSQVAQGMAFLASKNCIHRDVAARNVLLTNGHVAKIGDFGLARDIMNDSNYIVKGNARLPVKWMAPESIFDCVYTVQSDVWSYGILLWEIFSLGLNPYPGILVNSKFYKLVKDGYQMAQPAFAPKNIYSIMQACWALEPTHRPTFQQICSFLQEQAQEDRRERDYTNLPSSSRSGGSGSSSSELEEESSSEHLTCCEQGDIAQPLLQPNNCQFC

CaMKIV(h) = target: T13, CaMKIV(h) (Homo sapiens, UniProt Q16566)
T13 construct: purchased Eurofins (KinaseProfiler)
T13 sequence (Q16566 1-473): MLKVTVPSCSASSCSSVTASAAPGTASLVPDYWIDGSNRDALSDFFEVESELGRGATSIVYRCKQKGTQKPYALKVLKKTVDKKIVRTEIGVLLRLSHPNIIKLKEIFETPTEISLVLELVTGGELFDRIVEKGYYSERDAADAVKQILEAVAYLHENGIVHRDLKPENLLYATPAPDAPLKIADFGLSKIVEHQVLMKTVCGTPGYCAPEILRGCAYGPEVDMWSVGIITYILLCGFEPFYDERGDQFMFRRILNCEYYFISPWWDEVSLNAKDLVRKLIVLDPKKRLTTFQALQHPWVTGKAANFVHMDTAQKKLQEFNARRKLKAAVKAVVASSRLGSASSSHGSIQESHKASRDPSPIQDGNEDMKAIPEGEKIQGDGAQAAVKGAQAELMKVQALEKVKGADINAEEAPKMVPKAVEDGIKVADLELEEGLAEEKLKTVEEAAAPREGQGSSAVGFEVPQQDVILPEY

ROCK-II(h) = target: T14, ROCK-II(h) (Homo sapiens, UniProt O75116)
T14 construct: purchased Eurofins (KinaseProfiler)

Aurora-B(h) = target: T15, Aurora-B(h) (Homo sapiens, UniProt Q96GD4)
T15 construct: purchased Eurofins (KinaseProfiler)
T15 sequence (Q96GD4 whole entry): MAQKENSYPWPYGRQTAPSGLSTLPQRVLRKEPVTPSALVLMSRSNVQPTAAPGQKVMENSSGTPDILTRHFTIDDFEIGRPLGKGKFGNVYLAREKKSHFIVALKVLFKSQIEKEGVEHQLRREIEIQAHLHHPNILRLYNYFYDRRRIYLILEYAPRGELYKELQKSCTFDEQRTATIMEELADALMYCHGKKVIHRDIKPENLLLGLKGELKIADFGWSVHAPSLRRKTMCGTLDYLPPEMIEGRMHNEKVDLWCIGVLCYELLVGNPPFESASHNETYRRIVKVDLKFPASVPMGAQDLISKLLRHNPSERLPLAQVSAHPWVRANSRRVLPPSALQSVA

Work on COc1cc(OC)c(Cl)c(-c2ccc3c(NC(=O)c4ccc(N5CCNC(C)(C)C5)cc4)n[nH]c3n2)c1Cl [3D185] yielded an inhibition at 0.01 µM (SIK(h); 10 nM) of 4%, an inhibition at 0.1 µM (SIK(h); 100 nM) of -17% and an inhibition at 1 µM (SIK(h); 1000 nM) of -5%. For the same molecule, the inhibition at 0.01 µM (PDGFRα(h); 10 nM) was 9%, the inhibition at 0.1 µM (PDGFRα(h); 100 nM) was 6% and the inhibition at 1 µM (PDGFRα(h); 1000 nM) was 10%. The inhibition at 0.01 µM (LTK(h); 10 nM) was -8%, the inhibition at 0.1 µM (LTK(h); 100 nM) was 1% and the inhibition at 1 µM (LTK(h); 1000 nM) was 37%. For the same molecule, the inhibition at 0.01 µM (IGF-1R(h), activated; 10 nM) was -12%, the inhibition at 0.1 µM (IGF-1R(h), activated; 100 nM) was 6% and the inhibition at 1 µM (IGF-1R(h), activated; 1000 nM) was 49%. It also gave an inhibition at 0.01 µM (mTOR(h); 10 nM) of -2%, an inhibition at 0.1 µM (mTOR(h); 100 nM) of -2% and an inhibition at 1 µM (mTOR(h); 1000 nM) of 4%. For the same molecule, the inhibition at 0.01 µM (PKCδ(h); 10 nM) was 5%, the inhibition at 0.1 µM (PKCδ(h); 100 nM) was 4% and the inhibition at 1 µM (PKCδ(h); 1000 nM) was -1%. The inhibition at 0.01 µM (cKit(V560G)(h); 10 nM) was 10%, the inhibition at 0.1 µM (cKit(V560G)(h); 100 nM) was 38% and the inhibition at 1 µM (cKit(V560G)(h); 1000 nM) was 71%. The inhibition at 0.01 µM (DYRK1B(h); 10 nM) was 12%, the inhibition at 0.1 µM (DYRK1B(h); 100 nM) was 3% and the inhibition at 1 µM (DYRK1B(h); 1000 nM) was 3%. The inhibition at 0.01 µM (Axl(h); 10 nM) was -7%, the inhibition at 0.1 µM (Axl(h); 100 nM) was -9% and the inhibition at 1 µM (Axl(h); 1000 nM) was 26%. It also gave an inhibition at 0.01 µM (cKit(D816H)(h); 10 nM) of 22%, an inhibition at 0.1 µM (cKit(D816H)(h); 100 nM) of 27% and an inhibition at 1 µM (cKit(D816H)(h); 1000 nM) of 44%. The inhibition at 0.01 µM (FAK(h); 10 nM) was 17%, the inhibition at 0.1 µM (FAK(h); 100 nM) was 29% and the inhibition at 1 µM (FAK(h); 1000 nM) was 58%. The inhibition at 0.01 µM (Fms(Y969C)(h); 10 nM) was 34%, the inhibition at 0.1 µM (Fms(Y969C)(h); 100 nM) was 75% and the inhibition at 1 µM (Fms(Y969C)(h); 1000 nM) was 95%. It also gave an inhibition at 0.01 µM (CaMKIV(h); 10 nM) of -6%, an inhibition at 0.1 µM (CaMKIV(h); 100 nM) of -21% and an inhibition at 1 µM (CaMKIV(h); 1000 nM) of -22%. It also gave an inhibition at 0.01 µM (ROCK-II(h); 10 nM) of 0%, an inhibition at 0.1 µM (ROCK-II(h); 100 nM) of -1% and an inhibition at 1 µM (ROCK-II(h); 1000 nM) of -1%. The inhibition at 0.01 µM (Aurora-B(h); 10 nM) was 7%, the inhibition at 0.1 µM (Aurora-B(h); 100 nM) was -4% and the inhibition at 1 µM (Aurora-B(h); 1000 nM) was 5%.
